Experimental data published in patent US5760048A, “Alpha-mercaptoacrylic acid derivatives having calpain inhibitory activity” (Warner-Lambert Company, priority 1996, dated 1998).
Like-named read-outs stand apart in the source and are kept apart here.

Key:
calpain I = biological target: T1, calpain I (Homo sapiens, UniProt P07384); experiment: Assay of Calpain Activity (casein substrate, microplate, Coomassie blue); format: biochemical; parameters: Calpain I was purified from human erythrocytes; from tissue; host or cells: human erythrocytes
T1 sequence (P07384 1-714): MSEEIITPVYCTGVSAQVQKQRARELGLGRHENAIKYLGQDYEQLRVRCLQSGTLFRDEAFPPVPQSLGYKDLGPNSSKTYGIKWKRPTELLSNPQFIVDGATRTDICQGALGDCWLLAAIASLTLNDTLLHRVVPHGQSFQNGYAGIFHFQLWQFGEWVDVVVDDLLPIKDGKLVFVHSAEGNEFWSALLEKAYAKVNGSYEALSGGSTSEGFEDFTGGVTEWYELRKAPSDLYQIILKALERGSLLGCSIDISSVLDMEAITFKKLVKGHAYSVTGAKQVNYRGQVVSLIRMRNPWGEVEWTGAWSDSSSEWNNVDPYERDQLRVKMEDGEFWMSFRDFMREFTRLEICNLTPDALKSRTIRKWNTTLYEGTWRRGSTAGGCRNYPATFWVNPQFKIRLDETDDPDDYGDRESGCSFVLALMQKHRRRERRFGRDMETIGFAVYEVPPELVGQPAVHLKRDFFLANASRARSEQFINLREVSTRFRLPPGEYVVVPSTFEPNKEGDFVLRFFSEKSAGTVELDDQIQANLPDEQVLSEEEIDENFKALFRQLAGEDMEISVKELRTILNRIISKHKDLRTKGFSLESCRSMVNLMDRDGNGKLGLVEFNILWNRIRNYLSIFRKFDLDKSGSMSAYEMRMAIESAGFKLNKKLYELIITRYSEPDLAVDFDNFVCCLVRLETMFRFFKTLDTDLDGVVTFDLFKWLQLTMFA
T1 sequence (P04632 1-268 partner): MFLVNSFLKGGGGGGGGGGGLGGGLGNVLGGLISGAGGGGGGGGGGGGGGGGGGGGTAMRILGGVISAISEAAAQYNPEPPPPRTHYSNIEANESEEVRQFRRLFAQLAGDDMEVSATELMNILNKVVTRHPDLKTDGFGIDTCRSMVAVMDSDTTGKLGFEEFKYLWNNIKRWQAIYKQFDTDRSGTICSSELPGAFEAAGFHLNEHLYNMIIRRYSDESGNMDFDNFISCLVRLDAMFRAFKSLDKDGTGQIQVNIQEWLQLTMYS
Method: In 250 μL of reaction mixture, substrate casein (0.5 mg/mL) was incubated with 0.01 unit (80-120 ng) calpain I, 20 mM dithiothreitol (DTT), 50 mM Tris-HCl (pH 7.4 at 25° C.), and 4 mM CaCl2 at 25° C. for 60 minutes. Two 100-μL aliquots were taken for Coomassie blue binding analysis to quantify the remaining casein.
Calpain I was assayed as described (α-mercaptoacrylic acid). […] Inhibition of these proteases are presented as IC50.

papain = biological target: T2, papain (Carica papaya, UniProt P00784); experiment: Selectivity: papain protease assay (casein substrate); format: biochemical; conditions: Table II; read-out: Inhibitory Activity of Thiol-Acrylates, Papain (IC50)
T2 construct: purchased Sigma P3125; host or cells: papaya latex
T2 sequence (P00784 134-345): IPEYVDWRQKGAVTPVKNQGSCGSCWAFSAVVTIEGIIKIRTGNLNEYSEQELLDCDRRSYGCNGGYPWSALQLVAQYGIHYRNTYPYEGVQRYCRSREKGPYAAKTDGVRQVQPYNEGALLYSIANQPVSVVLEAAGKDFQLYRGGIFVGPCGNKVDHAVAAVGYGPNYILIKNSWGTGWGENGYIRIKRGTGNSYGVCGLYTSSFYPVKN
Method: (§1) Calpain I was assayed as described (α-mercaptoacrylic acid). Ten to 20 ng papain (papaya latex, Sigma, P3125), 1.25 μg trypsin (bovine pancreas, Sigma, T8003), and 5 μg thermolysin (Bacillus thermoproteolyticus, Sigma, P1512) were assayed using 0.5 mg/mL casein as substrate in the microplate format (250 μL reaction volume), essentially as described by Buroker-Kilgore M., Wang K. K. W., Anal Biochem 1993;208:387-392. Inhibition of these proteases are presented as IC50.

trypsin = biological target: T3, trypsin (Bos taurus, UniProt P00760); experiment: Selectivity: trypsin protease assay (casein substrate); format: biochemical, bovine; conditions: Table II; read-out: Inhibitory Activity of Thiol-Acrylates, Trypsin (IC50)
T3 construct: purchased Sigma T8003; host or cells: bovine pancreas
T3 sequence (P00760 24-246): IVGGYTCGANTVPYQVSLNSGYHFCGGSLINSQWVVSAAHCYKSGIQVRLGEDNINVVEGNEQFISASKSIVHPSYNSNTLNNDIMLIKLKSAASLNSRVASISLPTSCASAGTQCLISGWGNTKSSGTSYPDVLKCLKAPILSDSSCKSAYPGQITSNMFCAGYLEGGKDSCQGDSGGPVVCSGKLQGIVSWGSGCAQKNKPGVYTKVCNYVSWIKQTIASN
Method: as §1

thermolysin = biological target: T4, thermolysin (Bacillus thermoproteolyticus, UniProt P00800); experiment: Selectivity: thermolysin protease assay (casein substrate); format: biochemical
T4 construct: purchased Sigma P1512; host or cells: Bacillus thermoproteolyticus
Method: as §1

[1] = tested on: Fetal rat cortical cell cultures; experiment: Assay of Lactate Dehydrogenase (LDH): NMDA-induced LDH release; format: cell-based; conditions: FIG. II; for block of NMDA-induced LDH release (in words): 500 μM NMDA, 200 μM calpain inhibiting compound
Method: Seventeen-day-old cultures were pretreated with 200 μM calpain inhibiting compound (when added) for 1 hour before treatment of 500 μM N-methyl-D-aspartate (NMDA) for 30 minutes (in the absence or the presence of the compound).

[2] = tested on: spectrin breakdown in rat cortical cell cultures; experiment: Spectrin Breakdown Measurement (immunoblot); format: cell-based; conditions: NMDA-treated cortical cells, 4-hour post-NMDA
Method: Rat cortical cell cultures were treated with NMDA in the absence or presence of calpain inhibiting compounds as described in "Assay of LDH" above. At the end of the 4-hour post-NMDA incubation, cells were lysed with 300 μL buffer containing 20 mM Tris-HCL (pH 7.4 at 4° C.), 1% SDS, 5 mM EGTA, 5 mM EDTA, 1 mM DTT, and various protease inhibitors. Total cellular protein was precipitated by 100 μL of 100% trichloroacetic acid. The samples were centrifuged and the pelleted protein solubilized with 50 μl of 3M Tris base. […] The blots were then probed with rabbit antibrain spectrin antibody (primary antibody) followed by alkaline phosphatase-conjugated goat antirabbit immunoglobulin G antibody (secondary antibody). […] The SBP were quantified by densitometry (BioRad Model 620).

[3] = Table I, 4 mM CaCl2, pH 7.4, 25° C., 60 minutes, read-out: Inhibitory Activity Against Human Calpain I IC50
[4] = Table II (selectivity), read-out: Inhibitory Activity of Thiol-Acrylates, Calpain (IC50)

T4 sequence (P00800 233-548): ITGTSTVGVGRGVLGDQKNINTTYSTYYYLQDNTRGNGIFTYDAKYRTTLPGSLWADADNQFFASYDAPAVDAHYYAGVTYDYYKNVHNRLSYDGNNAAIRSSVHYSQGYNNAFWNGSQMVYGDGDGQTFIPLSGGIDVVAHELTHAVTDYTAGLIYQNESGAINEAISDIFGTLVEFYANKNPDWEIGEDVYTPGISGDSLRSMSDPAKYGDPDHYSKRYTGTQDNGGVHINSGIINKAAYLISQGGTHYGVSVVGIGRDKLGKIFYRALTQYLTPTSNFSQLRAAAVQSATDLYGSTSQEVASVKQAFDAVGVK

Row | Structure (SMILES) | IC50 (calpain I; [3]) [µM] | also measured
1 | O=C(O)/C(S)=C/c1c[nH]c2ccc(F)cc12 [Example 4, 3-(5-fluoro-3-indolyl)-2-mercapto-2-propenoic Acid] | 0.45 | –
2 | O=C(O)/C(S)=C/c1ccc(I)cc1 [Example 8, (Z)-2-propenoic Acid, 3-(4-iodophenyl)-2-mercapto] | – | IC50 (papain): > 500 µM; IC50 (trypsin): > 500 µM; IC50 (thermolysin): 204 µM; IC50 (calpain I): 0.36 µM
3 | O=C(O)/C(S)=C/c1ccc(F)cc1 [Example 10, 2-Propenoic Acid, 3-(4-fluorophenyl)-2-mercapto] | 1.2 | –
4 | CCn1c2ccccc2c2cc(/C=C(\S)C(=O)O)ccc21 [Example 12] | 1.1 | –
5 | COc1ccc(/C(C)=C(\S)C(=O)O)cc1 [Example 14, (Z)-2-Butanoic Acid, 2-mercapto-3-(4-methoxyphenyl)] | – | inhibition at 200 µM (calpain I; at 200 μM, Table I, read-out: Inhibitory Activity Against Human Calpain I, % inhibition): 66%
6 | O=C(O)/C(S)=C/c1ccc(-c2ccccc2)cc1 [Example 16, (Z)-2-Propenoic Acid, 3-[1,1'-biphenyl)-4-yl-2-mercapto] | 3 | –
7 | O=C(O)/C(S)=C/c1ccc(OCc2ccccc2)cc1 [Example 18, (Z)-2-Propenoic Acid, 2-mercapto-3-[4-(phenylmethoxy)phenyl]] | 1.8 | block of NMDA-induced LDH release (in words) [1]: partially blocked
8 | O=C(O)/C(S)=C/c1cccc2ccccc12 [Example 20, (Z)-2-Propenoic Acid, 2-mercapto-3-(1-naphthalenyl)] | 3.6 | –
9 | O=C(O)/C(S)=C/c1c[nH]c2ccccc12 [Example 22, (Z)-2-Propenoic Acid, 3-(1H-indol-3-yl)-2-mercapto] | 1.3 | IC50 (papain): > 200 µM; IC50 (trypsin): > 200 µM; IC50 (thermolysin): 248 µM; spectrin breakdown product (SBP) formation, 150 kDa and 145 kDa (in words) [2]: partially blocked SBP formation; IC50 (calpain I; [4]): 1.3 µM
10 | O=C(O)/C(S)=C/c1cc2ccccc2[nH]1 [Example 25, 3-(2-indolyl)-2-mercapto-2-propenoic Acid] | 1.7 | –
11 | O=C(O)/C(S)=C/c1cc2ccccc2c2ccccc12 [Example 27, 3-(9--phenanthyl)-2-mercapto-2-propenoic Acid] | 3.1 | –
12 | O=C(O)/C(S)=C/c1cccs1 [Example 29] | 4 | –
13 | O=C(O)/C(S)=C/c1cc2ccccc2o1 [Example 31, (Z)-2-Propenoic Acid, 3-(2-benzofuranyl)-2-mercapto] | 3.2 | –
14 | COc1ccc2cc(/C=C(\S)C(=O)O)ccc2c1 [Example 34, (Z)-2-Propenoic Acid, 2-mercapto-3-(6-methoxy-2-naphthalenyl)] | 2.1 | –
15 | O=C(O)/C(S)=C/c1ccc2c(c1)OCO2 [Example 36, (Z)-2-propenoic acid, 3-(5-benzodioxoyl)-2-mercapto] | 1.2 | –
16 | Cc1cc(/C=C(\S)C(=O)O)c(C)n1-c1ccccc1 [Example 38, (Z)-2-Propenoic Acid, 3-(2,5-dimethyl-1-phenyl-1H-pyrrol-3-yl)-2-mercapto] | 13.6 | –
17 | CC(C)(C)c1ccc(/C=C(\S)C(=O)O)cc1 [Example 40, (Z)-2-propenoic Acid, 3-[4-(1,1-dimethylethyl)phenyl]-2-mercapto] | 7.8 | –
18 | O=C(O)/C(S)=C/c1c(-c2ccc(Cl)cc2)[nH]c2ccccc12 [Example 42, (Z)-2-propenoic acid, 3-[2-(4-chlorophenyl)-1H-indol-3-yl]-2-mercapto] | 6 | –
19 | O=C(O)/C(S)=C/c1ccc2c(c1)CCCC2 [Example 44, (Z)-2-propenoic acid, 2-mercapto-3-(5,6,7,8-tetrahydro-2-naphthalenyl)] | 1.7 | –
20 | O=C(O)/C(S)=C/c1ccc(CCc2ccccc2)cc1 [Example 47, (Z)-2-Propenoic Acid, 2-mercapto-3-[4-(2-phenylethyl)-phenyl]] | 2.7 | –
21 | O=C(O)/C(S)=C/c1ccsc1 [Example 49, (Z)-2-Propenoic Acid, 3-(3-thienyl)-2-mercapto] | 7.5 | –
22 | O=C(O)/C(S)=C/c1ccccc1 [Example 51, 2-Propenoic Acid, 2-mercapto-3-phenyl] | 5.9 | IC50 (papain): > 200 µM; IC50 (trypsin): > 200 µM; IC50 (thermolysin): 367 µM; IC50 (calpain I; [4]): 5.9 µM
23 | O=C(O)/C(S)=C/c1ccc2c(c1)Cc1ccccc1-2 [Example 53, 2-Propenoic Acid, 3-(9H-fluoren-2-yl)-2-mercapto] | 1.6 | –
24 | C[C@]12N[C@H](Cc3ccccc31)c1ccccc12 [MK-801, reference compound] | – | block of NMDA-induced LDH release (in words) [1]: blockable; spectrin breakdown product (SBP) formation, 150 kDa and 145 kDa (in words) [2]: inhibited the SBP formation
25 | CN[C@H](CC(=O)O)C(=O)O [NMDA, N-methyl-D-aspartate, reference compound] | – | LDH release from the cells ([1]; 500 μM NMDA 30 minutes, additional 4 hours): about 210 unit/mL
